Two molecules from ChEMBL document CHEMBL1158650, “Isolation in High Yield of Citrinin From Penicillium odoratum and of Mycophenolic Acid From Penicillium brunneo-stoloniferum” (1979) can be followed below.

As a reminder, the MIC is the lowest concentration that inhibits growth of the organism. Low values mean a more susceptible organism, high ones a less susceptible organism.

In brackets after ≈: the same amount, converted by molar mass.

Holding throughout (format): functional
For one experiment, the system named is Bacillus subtilis. Nature of the experiment: Antibacterial activity against Bacillus subtilis IFO 3108 by twofold dilution method.
The subject of a further experiment is Alternaria. Nature of the experiment: Antifungal activity against Alternaria maritima IFO 8618 by twofold dilution method.
A further experiment concerns Fusarium graminearum. Nature of the experiment: Antifungal activity against Gibberella zeae IFO 4474 by twofold dilution method.

For `CC1=C2C(=CO[C@H](C)[C@H]2C)C(O)=C(C(=O)O)C1=O` [CITRININ], in the experiment with Bacillus subtilis, 25 µg/mL (≈ 99.9 µM) was the least that counted as inhibitory (MIC).

Take `COc1c(C)c2c(c(O)c1C/C=C(\C)CCC(=O)O)C(=O)OC2` [MYCOPHENOLIC ACID]: the MIC against Alternaria and against Fusarium graminearum was 200 µg/mL (≈ 624 µM) each time.
